What was measured:
HIF1α [1] = assay: Heat shock-induced HIF1α level in HCT116 (Western blot); format: cell-based; conditions: HCT116, normoxia
Excerpt: (§1) HCT116, SW480, HT29, DLD1, and RKO cells were obtained from American Type Culture Collection. HCT116 and HT29 cells were maintained in McCoy's 5A medium (Hyclone) with 10% fetal bovine serum (FBS, Hyclone) and 1% penicillin/streptomycin (P/S). SW480, DLD1, and RCC4 cells were maintained in Dulbecco's modified Eagle medium (Hyclone) with 10% FBS and 1% P/S. RKO cells were maintained in RPMI 1640 medium (Hyclone) with 10% FBS and 1% P/S. Cells were regularly tested and authenticated. All cell lines were maintained at 37° C. in 5% CO2. As for hypoxia treatment, cells were kept in a hypoxia chamber (In vivo^2, Ruskinn) which maintains 0.5% O2.
(§2) Treated cells were lysed in RIPA buffer (Sigma). Protein concentrations were determined using a BCA Protein Assay Kit (Life Technologies). Equal amounts of total protein were boiled with LDS sample buffer (Thermo Fisher Scientific) and reducing agent (Invitrogen). Samples were analyzed with SDS-PAGE. Proteins were transferred to an Immobilon-P PVDF membrane (EMD Millipore). First and secondary antibodies were added in order. Signals were detected after addition of the ECL western blotting substrate (Thermo Fisher Scientific).

HIF1α [2] = assay: HIF1α level in RCC4 cells (Western blot); format: cell-based; conditions: 6 hours under normoxia, independently of VHL presence
Excerpt: as §1, §2

SMILES: O=C1NC(=NCc2cccs2)S/C1=C\c1ccc2ncccc2c1 [Ro-3306]
- reversal of heat shock upregulation of HIF1α (HIF1α [1]): reversed
- level of HIF1α (HIF1α [2]): decreases

From patent publication US10729692B2, “Dual inhibition of CDK and HSP90 destabilize HIF1alpha and synergistically induces cancer cell death” (Institute For Cancer Research, priority 2017, dated 2020)
